One test deals with RNA. Description: Analyte screening of rosamine library, fluorescence response. The method, then: (§1) The rosamine derivative compounds were screened toward 47 different analytes that include proteins, polysaccharides, nucleic acids, and metal ions. The stock solution of each dye (50 μL) in HEPES (20 mM, pH=7.4) or PBS (20 mM, pH=7.4) was prepared, and diluted with the each analyte (50 μL, 1.0 mg/mL or 200 μM) in the same buffer solution. The final dye concentration varied from 0.5 μM to 10 μM. The fluorescence intensity fold changes of each dye in the presence of analytes were calculated by comparing the fluorescence intensity at the maximum emission wavelength with/without the analyte.

The next test deals with DNA. The description is as above. As for the experimental part:
as §1

Each structure is given as a SMILES string. Entries after “also recorded” stand apart in the source; their conditions may differ.

As for `CC1=CC(C)(C)N(C)c2ccc3c(=O)c4ccc(N)cc4n(C)c3c21` [J], the “fluorescence response to RNA among 47 analytes” value with RNA is “selective response; also recorded: selective increase”.
As to `CCN(CCCN(C)C)c1ccc2c(=O)c3ccc(N)cc3oc2c1` [L, 3-Amino-6-[(3-dimethylamino-propyl)-ethyl-amino]-xanthen-9-one], the “fluorescence response to DNA among 47 analytes” value in the test on DNA was “selective response; also recorded: selective increase”.

The values are drawn from patent publication US8951938B2, “Combinatorial rosamine library to detect cell-state switching” (New York University, priority 2007, dated 2015).
